These results are taken from patent US10189860B2, “Hydrates of dolutegravir sodium” (LEK PHARMACEUTICALS D.D., priority 2014, dated 2019).

The nature of data set [1]: Compressibility testing of API (bulk/tapped volume, compressibility index). It is filed as physicochemical. To be noted: API batches; for Compressibility index: (Vb−Vt)/Vb; for Flow character according to PhEur: PhEur Chapter 2.9.36 Powder flow. As to the method: As described in Example 8 herein above, the sodium salt of dolutegravir was prepared in two polymorphic forms (Form I and form HxA). […] Compressibilty index is an indirect measure of different powder properties such as size, shape, surface area, cohesiveness etc. (PhEur). Bulk (Vb) and tapped (Vt) volume were measured for several batches of both forms and the compressibilty index (%) is determined based on Vb and Vt. 250 mL volumetric cylinder with test samples weight approximately 25 g were used. The compressibility index was calculated according to formula ((Vb−Vt)/Vb).

Data set [2] is described as follows: API particle size by laser diffraction.
A short description of data set [3]: Particle morphology by scanning electron micrograph. The format is physicochemical. The conditions noted are these: SEM. The text has this: A figure of the morphology of Form I and form HxA is depicted in FIG. 13 (Form I) and 14 (form HxA), at different magnifications (500× magnification (Form I), 1.500× magnification (Form I and form HxA), and 5.000× magnification (form HxA)).

The nature of data set [4]: Gravimetric moisture sorption/desorption (GMSD) experiments. It is filed as physicochemical. The conditions noted are these: 25±0.1° C. As to the method:
Comparative gravimetric moisture sorption/desorption experiments at 25±0.1° C. were conducted with dolutegravir sodium monohydrate of WO 2010/068253 A1 and the hydrates of the present invention designated form HxA and form Hy1B.
The water values at varying relative humidities were obtained by recording moisture sorption/desorption isotherms with a SPS-11 moisture sorption analyzer (MD Messtechnik, Ulm, D). The samples were weighed into Teflon sample holders. […] The equilibrium condition for each step was set to a mass constancy of ±0.005% over 60 min. The temperature was 25±0.1° C. The water content of the samples was determined after the moisture sorption/desorption experiments with a TGA 7 system (Perkin Elmer, Norwalk, Conn., USA) using the Pyris 2.0 software. The samples were weighed into Al pans (50 μL). Dry nitrogen was used as purge gas (purge rate: 20 mL/min). The samples were heated from 25 to 200° C. using a heating rate of 10° C./min.

[5] abbreviates: listed as dolutegravir sodium monohydrate of WO 2010/068253 A1.
Setting [6] is: 95% RH, listed as dolutegravir sodium monohydrate of WO 2010/068253 A1.

Several values for one entry are separate records, joined by “and”; a condition that tells them apart may be missing. Equal entries are not always repeated. Entries after “also recorded” stand apart in the source; their conditions may differ. Bounds are passed on as bounds.

With `C[C@@H]1CCO[C@H]2Cn3cc(C(=O)NCc4ccc(F)cc4F)c(=O)c([O-])c3C(=O)N12.[Na+]` [Form HxA, sodium (4R,12aS)-9-((2,4-difluorobenzyl)carbamoyl)-4-methyl-6,8-dioxo-3,4,6,8,12,12a-hexahydro-2H-pyrido[1′,2′:4,5]pyrazino[2,1-b][1,3]oxazin-7-olate], in data set [1], the Bulk volume was 4.02 mL/g and 2.88 mL/g and 3.30 mL/g and 2.89 mL/g; the Tapped volume is 2.86 mL/g and 2.14 mL/g and 2.60 mL/g and 2.25 mL/g; the Compressibility index was 29% and 26% and 21% and 22%; the “Flow character according to PhEur” value is “Poor and Passable”. Further, in data set [1] (listed as HxA form), the Compressibility index was 22-29% and the “Flow character according to PhEur” value was ““poor” to “passable””. In data set [2], this compound returned a d0.1 of 1.3 μm, a d0.5 of 3.1 μm and a d0.9 of 7.4 μm. Also, the Particle size result in data set [2] (achieved with crystallization only) was “below 10 μm”. In addition, in data set [3], the morphology of particles result is given as “thin-plate like morphology” and the “particle sizes (primary particles)” value is given as “about 5 μm”. Further, the morphology of particles result in data set [3] (listed as HxA form) was “thin-plate like morphology”. Also, in data set [4], the “Remarks: hysteresis between sorption and desorption isotherms” value is recorded as “no significant hysterises”; the “Remarks: stable at / preserves crystal structure (RH range)” value is given as “stable at 0-95% RH”; the “Remarks: structural changes” value was “no structural changes observed”; the “Δm sorption [0-90% RH]” value was “+3.4%”. For the same compound, the “Δm sorption [30-90% RH]” value in data set [4] was “+2.5%”. Also, in data set [4] (listed as form HxA), the “Remarks: hysteresis between sorption and desorption isotherms” value is given as “absence of a hysteresis”; the hygroscopicity entry was “significantly less hygroscopic than the monohydrate of WO 2010/068253 A1”. In addition, in data set [4] (95% RH), the maximum water content entry is given as “about 3.8%” and the “mol of water per mol of dolutegravir sodium” value is 0.9 mol of water per mol of dolutegravir sodium. Also, the maximum water content in data set [4] (95% RH, listed as form HxA) is on record as 3.9%. For the same compound, in data set [4] (about 30% RH), the “mol of water per mol of dolutegravir sodium” value was 0.2 mol of water per mol of dolutegravir sodium and the water content result is on record as “about 0.9%”. The “mol of water per mol of dolutegravir sodium” value in data set [4] (about 70% RH) is given as 0.7 mol of water per mol of dolutegravir sodium.

For `C[C@@H]1CCO[C@H]2Cn3cc(C(=O)NCc4ccc(F)cc4F)c(=O)c([O-])c3C(=O)N12.[Na+]` [Form Hy1B, sodium (4R,12aS)-9-((2,4-difluorobenzyl)carbamoyl)-4-methyl-6,8-dioxo-3,4,6,8,12,12a-hexahydro-2H-pyrido[1′,2′:4,5]pyrazino[2,1-b][1,3]oxazin-7-olate], in data set [4], the “Remarks: hysteresis between sorption and desorption isotherms” value was “absence of a significant hysteresis; also recorded: no significant hysterises”; the hygroscopicity result is recorded as “significantly less hygroscopic than the monohydrate of WO 2010/068253 A1”; the “Δm sorption [0-90% RH]” value is given as “+4.8%”; the “Δm sorption [30-90% RH]” value is reported as “+2.4%”. The “mol of water per mol of dolutegravir sodium” value in data set [4] (90% RH) was 1.3 mol of water per mol of dolutegravir sodium.

Regarding `C[C@@H]1CCO[C@H]2Cn3cc(C(=O)NCc4ccc(F)cc4F)c(=O)c([O-])c3C(=O)N12.[Na+]` [Form I, reference compound], in data set [1], the Bulk volume was 5.55 mL/g and 7.00 mL/g and 4.89 mL/g; the Tapped volume was 3.79 mL/g and 4.56 mL/g and 3.23 mL/g; the Compressibility index was 32% and 35% and 34%; the “Flow character according to PhEur” value is “Very poor”. In data set [2], this compound came in with a d0.1 of 3.5 μm, a d0.5 of 10 μm and a d0.9 of 40 μm. Further, in data set [3], the morphology of particles entry is given as “long needle like crystals” and the needle lengths is reported as at most 70 μm.

For the compound `C[C@@H]1CCO[C@H]2Cn3cc(C(=O)NCc4ccc(F)cc4F)c(=O)c([O-])c3C(=O)N12.[Na+]` [MH of WO 2010/068253, reference compound], in data set [4], the “Remarks: dehydration below” value is recorded as “dehydration below 30% RH,”, the “Remarks: hysteresis at (RH range)” value is on record as “hysterises at 40-95% RH”, the “Remarks: stable at / preserves crystal structure (RH range)” value was “stable at 30-60% RH,” and the “Δm sorption [0-90% RH]” value was “+14.0%”. In data set [4], the “Δm sorption [30-90% RH]” value is reported as “+10.7%”. Moreover, in data set [4] (setting [5]), the “Remarks: dehydration below” value is “Below 30 % RH” and the hygroscopicity entry is reported as “very hygroscopic”. Also, in data set [4] (setting [6]), the maximum water content result is listed as “about 21.8%” and the “mol of water per mol of dolutegravir sodium” value is recorded as 5.6 mol of water per mol of dolutegravir sodium.
